Measurements as given in EP4692071A1, “PHOTOCHROMIC COMPOUND, NAPHTHOL DERIVATIVE, CURABLE COMPOSITION, OPTICAL ARTICLE, LENS, AND EYEGLASS” (TOKUYAMA CORPORATION, priority 2023, dated 2024).

Test: Maximum absorption wavelength (λmax) after color development, spectrophotometer MCPD3000
Format: physicochemical
Details: binder sheet (binder method), urethaneurea resin photochromic layer between polycarbonate sheets, 0.25 mmol per 100 parts by mass resin
How it was run: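 Read-out: absorbance at λmax, multichannel photodetector spectrophotometer. Colour density = ε(240) − ε(0), 240 s light, 23°C. τ1/2 = time for ε(240) − ε(0) to halve after light off. Residual rate compares density before and after 90 h xenon weathering.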

Structure (SMILES) | Maximum absorption wavelength (nm)
CCCCOc1ccc(C2(c3ccc(OC)cc3)C=Cc3c4c(c5cc(N(C)c6ccccc6)c(OC)cc5c3O2)-c2ccc(-c3ccc(C(C)(C)C)cc3)cc2C4(CC)CC)cc1 (centres unmarked) [Example 45 Formula (94)] | 506
CCCC1(CCC)c2ccccc2-c2c1c1c(c3cc(OC)c(N(c4ccccc4)c4ccc(C)cc4)cc23)OC(c2ccc(OC)cc2)(c2ccc(OC)cc2)C=C1 [Example 13 Formula (68)] | 512
CCCC1(CCC)c2ccccc2-c2c1c1c(c3cc(OC)c(N4CCOc5ccccc54)cc23)OC(c2ccc(OC)cc2)(c2ccc(OC)cc2)C=C1 [Example 10 Formula (59)] | 510

Same assay, conditions: photochromic cured product by kneading method, 1 mm thick thiourethane, 0.106 mmol per 100 g monomers

Structure (SMILES) | Maximum absorption wavelength (nm)
CCCC1(CCC)c2ccccc2-c2c1c1c(c3cc(OC)c(N4CCOc5ccccc54)cc23)OC(c2ccc(OC)cc2)(c2ccc(OC)cc2)C=C1 [Example 10 Formula (59)] | 514

Same assay, conditions: photochromic laminate by coating method, 40 µm photochromic layer on thiourethane lens, 0.25 mmol compound per 100 g monomers

Structure (SMILES) | Maximum absorption wavelength (nm)
CCCCOc1ccc(C2(c3ccc(OC)cc3)C=Cc3c4c(c5cc(N(C)c6ccccc6)c(OC)cc5c3O2)-c2ccc(-c3ccc(C(C)(C)C)cc3)cc2C4(CC)CC)cc1 (centres unmarked) [Example 45 Formula (94)] | 506
CCCC1(CCC)c2ccccc2-c2c1c1c(c3cc(OC)c(N(c4ccccc4)c4ccc(C)cc4)cc23)OC(c2ccc(OC)cc2)(c2ccc(OC)cc2)C=C1 [Example 13 Formula (68)] | 512
CCCC1(CCC)c2ccccc2-c2c1c1c(c3cc(OC)c(N4CCOc5ccccc54)cc23)OC(c2ccc(OC)cc2)(c2ccc(OC)cc2)C=C1 [Example 10 Formula (59)] | 510

Test: 23°C color optical density (A23): absorbancy difference ε(240)-ε(0) after 240 s light irradiation at 23°C
Format: physicochemical
Details: binder sheet (binder method), 240 s irradiation
How it was run: (§1)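 Photochromic plastic lens samples were irradiated for 240 s at 23°C, and colour density was taken as the absorbance change at the absorption maximum. Fading half-life was timed from the end of irradiation until that absorbance change fell by half. Durability compared colour density before and after xenon-lamp ageing.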

Structure (SMILES) | A23 (-)
CCCCOc1ccc(C2(c3ccc(OC)cc3)C=Cc3c4c(c5cc(N(C)c6ccccc6)c(OC)cc5c3O2)-c2ccc(-c3ccc(C(C)(C)C)cc3)cc2C4(CC)CC)cc1 (centres unmarked) [Example 45 Formula (94)] | 1.24 -
CCCC1(CCC)c2ccccc2-c2c1c1c(c3cc(OC)c(N(c4ccccc4)c4ccc(C)cc4)cc23)OC(c2ccc(OC)cc2)(c2ccc(OC)cc2)C=C1 [Example 13 Formula (68)] | 1.6
CCCC1(CCC)c2ccccc2-c2c1c1c(c3cc(OC)c(N4CCOc5ccccc54)cc23)OC(c2ccc(OC)cc2)(c2ccc(OC)cc2)C=C1 [Example 10 Formula (59)] | 1.32 -

Same assay, conditions: cured product by kneading method, 1 mm, 240 s irradiation

Structure (SMILES) | A23 (-)
CCCC1(CCC)c2ccccc2-c2c1c1c(c3cc(OC)c(N4CCOc5ccccc54)cc23)OC(c2ccc(OC)cc2)(c2ccc(OC)cc2)C=C1 [Example 10 Formula (59)] | 1.34 -

Same assay, conditions: photochromic laminate by coating method, 240 s irradiation, at the maximum absorption wavelength

Structure (SMILES) | A23 (-)
CCCCOc1ccc(C2(c3ccc(OC)cc3)C=Cc3c4c(c5cc(N(C)c6ccccc6)c(OC)cc5c3O2)-c2ccc(-c3ccc(C(C)(C)C)cc3)cc2C4(CC)CC)cc1 (centres unmarked) [Example 45 Formula (94)] | 1.21 -
CCCC1(CCC)c2ccccc2-c2c1c1c(c3cc(OC)c(N(c4ccccc4)c4ccc(C)cc4)cc23)OC(c2ccc(OC)cc2)(c2ccc(OC)cc2)C=C1 [Example 13 Formula (68)] | 1.57 -
CCCC1(CCC)c2ccccc2-c2c1c1c(c3cc(OC)c(N4CCOc5ccccc54)cc23)OC(c2ccc(OC)cc2)(c2ccc(OC)cc2)C=C1 [Example 10 Formula (59)] | 1.3 -

Test: 35°C color optical density (A35): absorbancy difference ε(240)-ε(0) after 240 s light irradiation at 35°C
Format: physicochemical
Details: binder sheet (binder method), 240 s irradiation
How it was run: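 A photochromic cured product was irradiated with light at 35°C for 240 seconds. The 35°C color optical density (A35) was the absorbancy after irradiation {ε(240)} minus the absorbancy without irradiation ε(0), read at the first and second absorption wavelengths. It served as an indicator of color optical density.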

Structure (SMILES) | A35 (-)
CCCCOc1ccc(C2(c3ccc(OC)cc3)C=Cc3c4c(c5cc(N(C)c6ccccc6)c(OC)cc5c3O2)-c2ccc(-c3ccc(C(C)(C)C)cc3)cc2C4(CC)CC)cc1 (centres unmarked) [Example 45 Formula (94)] | 0.88 -
CCCC1(CCC)c2ccccc2-c2c1c1c(c3cc(OC)c(N(c4ccccc4)c4ccc(C)cc4)cc23)OC(c2ccc(OC)cc2)(c2ccc(OC)cc2)C=C1 [Example 13 Formula (68)] | 1.09 -
CCCC1(CCC)c2ccccc2-c2c1c1c(c3cc(OC)c(N4CCOc5ccccc54)cc23)OC(c2ccc(OC)cc2)(c2ccc(OC)cc2)C=C1 [Example 10 Formula (59)] | 0.87 -

Same assay, conditions: cured product by kneading method, 1 mm, 240 s irradiation

Structure (SMILES) | A35 (-)
CCCC1(CCC)c2ccccc2-c2c1c1c(c3cc(OC)c(N4CCOc5ccccc54)cc23)OC(c2ccc(OC)cc2)(c2ccc(OC)cc2)C=C1 [Example 10 Formula (59)] | 0.91 -

Same assay, conditions: photochromic laminate by coating method, 240 s irradiation

Structure (SMILES) | A35 (-)
CCCCOc1ccc(C2(c3ccc(OC)cc3)C=Cc3c4c(c5cc(N(C)c6ccccc6)c(OC)cc5c3O2)-c2ccc(-c3ccc(C(C)(C)C)cc3)cc2C4(CC)CC)cc1 (centres unmarked) [Example 45 Formula (94)] | 0.86 -
CCCC1(CCC)c2ccccc2-c2c1c1c(c3cc(OC)c(N(c4ccccc4)c4ccc(C)cc4)cc23)OC(c2ccc(OC)cc2)(c2ccc(OC)cc2)C=C1 [Example 13 Formula (68)] | 1.08 -
CCCC1(CCC)c2ccccc2-c2c1c1c(c3cc(OC)c(N4CCOc5ccccc54)cc23)OC(c2ccc(OC)cc2)(c2ccc(OC)cc2)C=C1 [Example 10 Formula (59)] | 0.86 -

Test: High-temperature color development rate (A35/A23×100), temperature dependency
Format: physicochemical
Details: binder sheet (binder method)
How it was run: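 Color optical density was taken as the absorbance after 240 seconds of light irradiation, ε(240), minus the absorbance without irradiation, ε(0), at the absorption maximum. It was measured at 23°C (A23) and at 35°C (A35), and the ratio A35/A23×100 served as the high-temperature color development rate, showing temperature dependency.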

Structure (SMILES) | A35/A23 *100 (%)
CCCCOc1ccc(C2(c3ccc(OC)cc3)C=Cc3c4c(c5cc(N(C)c6ccccc6)c(OC)cc5c3O2)-c2ccc(-c3ccc(C(C)(C)C)cc3)cc2C4(CC)CC)cc1 (centres unmarked) [Example 45 Formula (94)] | 71
CCCC1(CCC)c2ccccc2-c2c1c1c(c3cc(OC)c(N(c4ccccc4)c4ccc(C)cc4)cc23)OC(c2ccc(OC)cc2)(c2ccc(OC)cc2)C=C1 [Example 13 Formula (68)] | 68
CCCC1(CCC)c2ccccc2-c2c1c1c(c3cc(OC)c(N4CCOc5ccccc54)cc23)OC(c2ccc(OC)cc2)(c2ccc(OC)cc2)C=C1 [Example 10 Formula (59)] | 66

Same assay, conditions: cured product by kneading method, 1 mm

Structure (SMILES) | A35/A23 *100 (%)
CCCC1(CCC)c2ccccc2-c2c1c1c(c3cc(OC)c(N4CCOc5ccccc54)cc23)OC(c2ccc(OC)cc2)(c2ccc(OC)cc2)C=C1 [Example 10 Formula (59)] | 68

Same assay, conditions: photochromic laminate by coating method

Structure (SMILES) | A35/A23 *100 (%)
CCCCOc1ccc(C2(c3ccc(OC)cc3)C=Cc3c4c(c5cc(N(C)c6ccccc6)c(OC)cc5c3O2)-c2ccc(-c3ccc(C(C)(C)C)cc3)cc2C4(CC)CC)cc1 (centres unmarked) [Example 45 Formula (94)] | 71
CCCC1(CCC)c2ccccc2-c2c1c1c(c3cc(OC)c(N(c4ccccc4)c4ccc(C)cc4)cc23)OC(c2ccc(OC)cc2)(c2ccc(OC)cc2)C=C1 [Example 13 Formula (68)] | 69
CCCC1(CCC)c2ccccc2-c2c1c1c(c3cc(OC)c(N4CCOc5ccccc54)cc23)OC(c2ccc(OC)cc2)(c2ccc(OC)cc2)C=C1 [Example 10 Formula (59)] | 66

Test: Residual rate (A90/A0×100) after 90 h accelerated deterioration in xenon weather meter X25, color developing durability
Format: physicochemical
Details: binder sheet (binder method); xenon weather meter 90 hours
How it was run: as §1

Structure (SMILES) | Residual rate (%)
CCCCOc1ccc(C2(c3ccc(OC)cc3)C=Cc3c4c(c5cc(N(C)c6ccccc6)c(OC)cc5c3O2)-c2ccc(-c3ccc(C(C)(C)C)cc3)cc2C4(CC)CC)cc1 (centres unmarked) [Example 45 Formula (94)] | 92
CCCC1(CCC)c2ccccc2-c2c1c1c(c3cc(OC)c(N(c4ccccc4)c4ccc(C)cc4)cc23)OC(c2ccc(OC)cc2)(c2ccc(OC)cc2)C=C1 [Example 13 Formula (68)] | 96
CCCC1(CCC)c2ccccc2-c2c1c1c(c3cc(OC)c(N4CCOc5ccccc54)cc23)OC(c2ccc(OC)cc2)(c2ccc(OC)cc2)C=C1 [Example 10 Formula (59)] | 94

Same assay, conditions: cured product by kneading method, 1 mm; xenon weather meter 90 hours

Structure (SMILES) | Residual rate (%)
CCCC1(CCC)c2ccccc2-c2c1c1c(c3cc(OC)c(N4CCOc5ccccc54)cc23)OC(c2ccc(OC)cc2)(c2ccc(OC)cc2)C=C1 [Example 10 Formula (59)] | 89

Same assay, conditions: photochromic laminate by coating method; xenon weather meter 90 hours

Structure (SMILES) | Residual rate (%)
CCCCOc1ccc(C2(c3ccc(OC)cc3)C=Cc3c4c(c5cc(N(C)c6ccccc6)c(OC)cc5c3O2)-c2ccc(-c3ccc(C(C)(C)C)cc3)cc2C4(CC)CC)cc1 (centres unmarked) [Example 45 Formula (94)] | 80
CCCC1(CCC)c2ccccc2-c2c1c1c(c3cc(OC)c(N(c4ccccc4)c4ccc(C)cc4)cc23)OC(c2ccc(OC)cc2)(c2ccc(OC)cc2)C=C1 [Example 13 Formula (68)] | 83
CCCC1(CCC)c2ccccc2-c2c1c1c(c3cc(OC)c(N4CCOc5ccccc54)cc23)OC(c2ccc(OC)cc2)(c2ccc(OC)cc2)C=C1 [Example 10 Formula (59)] | 82
